The values below are quoted from earlier work in paper PMC6400584, “Activation mechanism of ATP-sensitive K^+ channels explored with real-time nucleotide binding” (eLife, 2019).

This data set addresses T1, SUR1/Kir6.2 (Homo sapiens, UniProt Q09428+Q14654).
T1 construct: expressed in transfected cells; host or cells: HEK-293T
The arrangement: method as in Proks et al., 2010. As to conditions: 100 μM in Mg2+-free solutions; wild-type; ref Proks et al., 2010; cited from earlier work.

T1 sequence (Q14654 whole entry): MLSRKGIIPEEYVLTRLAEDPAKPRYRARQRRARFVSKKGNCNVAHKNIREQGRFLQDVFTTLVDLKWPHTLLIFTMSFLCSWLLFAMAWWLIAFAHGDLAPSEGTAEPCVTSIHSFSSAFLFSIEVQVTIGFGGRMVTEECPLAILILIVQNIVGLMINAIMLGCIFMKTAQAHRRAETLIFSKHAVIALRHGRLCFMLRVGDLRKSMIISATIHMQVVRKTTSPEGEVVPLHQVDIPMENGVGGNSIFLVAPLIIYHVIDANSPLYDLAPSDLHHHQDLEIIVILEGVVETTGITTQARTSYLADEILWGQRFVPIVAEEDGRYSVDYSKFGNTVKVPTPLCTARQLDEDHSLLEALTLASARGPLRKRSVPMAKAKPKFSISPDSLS
T1 sequence (Q09428 whole entry): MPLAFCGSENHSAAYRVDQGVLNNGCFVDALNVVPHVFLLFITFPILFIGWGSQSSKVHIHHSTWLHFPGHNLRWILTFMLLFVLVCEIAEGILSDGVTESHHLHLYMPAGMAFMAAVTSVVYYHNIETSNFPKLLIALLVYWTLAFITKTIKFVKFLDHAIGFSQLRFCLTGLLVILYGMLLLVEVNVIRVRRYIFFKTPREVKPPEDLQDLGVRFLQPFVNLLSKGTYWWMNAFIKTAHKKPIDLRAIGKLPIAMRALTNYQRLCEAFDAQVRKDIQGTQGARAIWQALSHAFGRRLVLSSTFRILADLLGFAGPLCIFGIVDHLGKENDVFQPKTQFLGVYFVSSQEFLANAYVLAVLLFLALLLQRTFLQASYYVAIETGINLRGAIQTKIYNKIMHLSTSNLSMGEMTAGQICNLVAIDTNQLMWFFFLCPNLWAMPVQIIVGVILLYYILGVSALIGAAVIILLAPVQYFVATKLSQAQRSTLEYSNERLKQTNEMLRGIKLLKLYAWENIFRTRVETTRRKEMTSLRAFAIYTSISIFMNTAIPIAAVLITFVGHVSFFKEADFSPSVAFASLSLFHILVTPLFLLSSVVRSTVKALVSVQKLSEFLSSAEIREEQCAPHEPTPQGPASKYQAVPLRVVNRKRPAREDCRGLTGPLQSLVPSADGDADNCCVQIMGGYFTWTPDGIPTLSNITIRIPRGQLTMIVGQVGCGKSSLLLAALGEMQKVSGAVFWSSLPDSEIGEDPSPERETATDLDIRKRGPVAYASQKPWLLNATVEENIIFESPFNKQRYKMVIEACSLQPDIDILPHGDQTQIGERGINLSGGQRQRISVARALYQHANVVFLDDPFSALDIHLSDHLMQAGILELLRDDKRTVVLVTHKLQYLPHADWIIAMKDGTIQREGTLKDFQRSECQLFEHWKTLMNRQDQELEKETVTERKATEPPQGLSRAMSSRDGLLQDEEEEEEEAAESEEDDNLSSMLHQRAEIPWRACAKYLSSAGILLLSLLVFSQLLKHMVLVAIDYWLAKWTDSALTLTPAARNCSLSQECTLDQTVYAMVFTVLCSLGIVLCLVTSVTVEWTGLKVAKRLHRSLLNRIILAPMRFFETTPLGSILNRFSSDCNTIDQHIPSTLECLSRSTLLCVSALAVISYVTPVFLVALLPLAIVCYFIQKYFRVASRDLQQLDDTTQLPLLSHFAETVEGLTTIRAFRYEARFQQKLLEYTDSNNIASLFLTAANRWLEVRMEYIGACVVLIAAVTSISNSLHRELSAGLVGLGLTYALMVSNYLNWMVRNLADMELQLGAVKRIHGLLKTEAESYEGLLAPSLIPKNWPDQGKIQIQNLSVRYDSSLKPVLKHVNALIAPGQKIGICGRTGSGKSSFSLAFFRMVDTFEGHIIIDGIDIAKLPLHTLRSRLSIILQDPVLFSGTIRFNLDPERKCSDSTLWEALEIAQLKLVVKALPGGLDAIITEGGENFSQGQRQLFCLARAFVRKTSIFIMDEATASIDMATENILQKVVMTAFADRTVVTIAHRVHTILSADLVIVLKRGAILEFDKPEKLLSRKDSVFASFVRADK

With `Nc1ncnc2c1ncn2[C@@H]1O[C@H](COP(=O)(O)OP(=O)(O)O)[C@@H](O)[C@H]1O` [ADP], the reduction in current is ~ 60%.
